Reference: paper PMC4971072, “Chemically Homogenous Compounds with Antagonistic Properties at All α1-Adrenoceptor Subtypes but not β1-Adrenoceptor Attenuate Adrenaline-Induced Arrhythmia in Rats” (Frontiers in Pharmacology, 2016)

Key:
[1] = target: T1, α1A-adrenoceptors (Rattus norvegicus, UniProt P43140); test: Functional bioassay, isolated rat tail artery, noradrenaline contraction; format: biochemical; conditions: noradrenaline as agonist
T1 construct: the middle part of the ventral caudal artery was removed; from tissue; host or cells: isolated rat tail (ventral caudal) artery rings
T1 sequence (P43140 1-466): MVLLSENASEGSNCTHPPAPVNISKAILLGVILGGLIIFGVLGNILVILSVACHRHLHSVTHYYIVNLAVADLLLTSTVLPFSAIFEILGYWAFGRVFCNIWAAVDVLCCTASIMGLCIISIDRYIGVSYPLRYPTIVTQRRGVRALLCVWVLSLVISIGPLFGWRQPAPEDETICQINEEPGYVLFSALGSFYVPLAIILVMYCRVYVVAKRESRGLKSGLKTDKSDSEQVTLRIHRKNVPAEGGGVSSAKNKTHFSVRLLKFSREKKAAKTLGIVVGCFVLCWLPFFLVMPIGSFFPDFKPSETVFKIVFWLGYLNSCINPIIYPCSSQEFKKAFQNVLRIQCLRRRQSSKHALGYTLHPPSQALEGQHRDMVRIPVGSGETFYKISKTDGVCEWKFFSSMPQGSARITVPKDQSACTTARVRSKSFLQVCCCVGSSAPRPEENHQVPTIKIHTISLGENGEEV
Experimental: The isolated artery, cut into ~4 mm long rings, was then horizontally put up between two stainless steel hooks (diameter 0.15 mm). One hook was fastened to the bottom of the chamber and the other to an isometric FDT10-A force displacement transducer (DMT Model 750TOBS, Denmark), linked with Powerlab 4/26 analyzer (ADInstruments), and processed by LabChart 7 software. […] The initial optimal tissues tension was set at 0.75 g. Chloroethylclonidine (3 μM) as the preferential α1B-adrenoreceptor alkylating agent was used during incubation and after 30 min it was completely washed off. Through 100 min of equilibration tissues were stimulated with noradrenaline (1 μM) four times with washing out until the contractile response become constant. Two cumulative concentration-response curves to noradrenaline, at an interval of 60 min, were established on each arterial ring both in the presence and absence of antagonist. The incubation with antagonists went on for 30 min. The experiments were carried out in the constant presence of yohimbine (0.1 μM) and propranolol (1 μM) to block α2- and β-adrenoceptors, respectively in order to minimize the involvement of these adrenoceptors in the response to noradrenaline.
Data are means ± S.E.M. of at least 4 separate experiments. To establish Hill slopes for the agonist concentration–response curves and calculate EC50 values, curves were fitted to all the data by non-linear regression. The EC50 value in the presence and absence of antagonists was used to ascertain the concentration ratio (CR). Schild analysis was performed.

[2] = tested on: lipid peroxidation in rat brain homogenate; test: Lipid peroxidation in rat brain homogenate (TBARS), antioxidant effect; format: biochemical; conditions: 10^−3 M
Experimental: The rat brain homogenate containing 10 mg tissue/ml was prepared in 0.9% saline. The rates of membrane lipid peroxidation were measured by the formation of thiobarbituric acid reactive substances (TBARS). Rat brain homogenates (1 ml) were incubated at 37°C for 5 min with 10 μl of a tested compound or vehicle. Lipid peroxidation was initiated by the addition of 50 μl of 0.5 mM FeCl2 and 50 μl of 2.0 mM ascorbic acid. After 30 min of incubation, the reaction was stopped by adding 0.1 ml of 0.2% butylated hydroxytoluene (BHT). Thiobarbituric acid reagent was then added and the mixture was heated for 15 min in a boiling water bath.

[3] = tested on: normal ECG in rats; test: The effect on normal electrocardiogram in rats; format: in vivo, rat; conditions: anesthetized rats, i.p. at ED84
Experimental: The experiment was carried out to exclude the influence of tested compounds on normal ECG. […] The influence on QRS complex, PQ interval, heart rate (RR), and QTc interval was determined.

How did the “Schild slope ± S.E.M., α1A” value [1] turn out when `COc1ccccc1N1CCN(CCOCCOc2c(C)cccc2Cl)CC1.Cl` [HBK-15, 1-[(2-chloro-6-methylphenoxy)ethoxyethyl]-4-(2-methoxyphenyl)piperazine hydrochloride] was run?
Its value is 1.01 ± 0.18.

What about the Kb ([1]; read-out: pA2 ± S.E.M., α1A (converted)) of the same compound?
Its Kb is 19.5 nM.

What about the “inhibition of lipid peroxidation (in words)” value [2] of the same compound?
The value was “inactive”.

What about the “% reduction of absorbance (% antioxidant activity)” value ([2]; TBARs at 532 nm) of the same compound?
Its value is 1.22%.

And the Absorbance ([2]; TBARs at 532 nm)?
The Absorbance was 0.891 ± 0.008.

What about the “influence on ECG parameters (PQ interval, QRS complex, QTc interval)” value [3] of the same compound?
Its value is “did not influence the ECG parameters”.

What about the “Beats/min (ECG)” value ([3]; 0 min (initial values)) of the same compound?
The value was 353.8 ± 10.2 Beats/min.

And the “PQ (ECG)” value ([3]; 0 min (initial values))?
Its value is 48.7 ± 1.0 ms.

What about the “QRS (ECG)” value ([3]; 0 min (initial values)) of the same compound?
Its value is 25.7 ± 0.7 ms.

And the “QT (ECG)” value ([3]; 0 min (initial values))?
Its value is 87.3 ± 1.4 ms.

What about the “QTc (ECG, Bazett)” value ([3]; 0 min (initial values)) of the same compound?
The value was 212.0 ± 5.0 ms.

What about the “Beats/min (ECG)” value ([3]; 5 min) of the same compound?
The value was 365.4 ± 15.3 Beats/min.

And the “PQ (ECG)” value ([3]; 5 min)?
Its value is 48.4 ± 0.5 ms.

What about the “QRS (ECG)” value ([3]; 5 min) of the same compound?
Its value is 26.3 ± 0.9 ms.

And the “QT (ECG)” value ([3]; 5 min)?
The value was 86.5 ± 1.3 ms.

And the “QTc (ECG, Bazett)” value ([3]; 5 min)?
The value was 213.6 ± 7.0 ms.

What about the “Beats/min (ECG)” value ([3]; 10 min) of the same compound?
Its value is 350.8 ± 10.5 Beats/min.

What about the “PQ (ECG)” value ([3]; 10 min) of the same compound?
Its value is 48.2 ± 1.0 ms.

And the “QRS (ECG)” value ([3]; 10 min)?
Its value is 26.1 ± 1.1 ms.

What about the “QT (ECG)” value ([3]; 10 min) of the same compound?
The value was 87.2 ± 2.0 ms.

And the “QTc (ECG, Bazett)” value ([3]; 10 min)?
The value was 211.3 ± 6.2 ms.

What about the “Beats/min (ECG)” value ([3]; 15 min) of the same compound?
Its value is 333.9 ± 12.4 Beats/min.

And the “PQ (ECG)” value ([3]; 15 min)?
The value was 46.6 ± 0.9 ms.

What about the “QRS (ECG)” value ([3]; 15 min) of the same compound?
Its value is 25.6 ± 1.2 ms.

And the “QT (ECG)” value ([3]; 15 min)?
The value was 87.5 ± 2.0 ms.

And the “QTc (ECG, Bazett)” value ([3]; 15 min)?
The value was 207.1 ± 6.8 ms.

What about the “Beats/min (ECG)” value ([3]; 20 min) of the same compound?
The value was 327.6 ± 20.3 Beats/min.

And the “PQ (ECG)” value ([3]; 20 min)?
Its value is 47.6 ± 0.5 ms.

What about the “QRS (ECG)” value ([3]; 20 min) of the same compound?
The value was 26.3 ± 0.5 ms.

What about the “QT (ECG)” value ([3]; 20 min) of the same compound?
Its value is 87.2 ± 0.6 ms.

And the “QTc (ECG, Bazett)” value ([3]; 20 min)?
The value was 203.7 ± 7.2 ms.

What about the “Beats/min (ECG)” value ([3]; 30 min) of the same compound?
The value was 340.1 ± 17.7 Beats/min.

What about the “PQ (ECG)” value ([3]; 30 min) of the same compound?
The value was 46.1 ± 0.3 ms.

And the “QRS (ECG)” value ([3]; 30 min)?
The value was 26.4 ± 0.9 ms.

And the “QT (ECG)” value ([3]; 30 min)?
The value was 86.7 ± 1.1 ms.

What about the “QTc (ECG, Bazett)” value ([3]; 30 min) of the same compound?
The value was 206.4 ± 7.9 ms.

What about the “Beats/min (ECG)” value ([3]; 40 min) of the same compound?
The value was 339.5 ± 20.4 Beats/min.

And the “PQ (ECG)” value ([3]; 40 min)?
Its value is 46.1 ± 0.7 ms.

And the “QRS (ECG)” value ([3]; 40 min)?
Its value is 28.0 ± 0.9 ms.

And the “QT (ECG)” value ([3]; 40 min)?
Its value is 87.0 ± 1.5 ms.

What about the “QTc (ECG, Bazett)” value ([3]; 40 min) of the same compound?
The value was 206.5 ± 6.6 ms.

And the “Beats/min (ECG)” value ([3]; 50 min)?
The value was 350.1 ± 17.9 Beats/min.

What about the “PQ (ECG)” value ([3]; 50 min) of the same compound?
Its value is 47.5 ± 0.7 ms.

And the “QRS (ECG)” value ([3]; 50 min)?
Its value is 26.1 ± 1.2 ms.

And the “QT (ECG)” value ([3]; 50 min)?
The value was 88.2 ± 0.8 ms.

And the “QTc (ECG, Bazett)” value ([3]; 50 min)?
Its value is 212.7 ± 6.9 ms.

What about the “Beats/min (ECG)” value ([3]; 60 min) of the same compound?
Its value is 351.8 ± 15.0 Beats/min.

What about the “PQ (ECG)” value ([3]; 60 min) of the same compound?
The value was 48.0 ± 1.1 ms.

What about the “QRS (ECG)” value ([3]; 60 min) of the same compound?
Its value is 26.3 ± 0.5 ms.

What about the “QT (ECG)” value ([3]; 60 min) of the same compound?
The value was 88.5 ± 2.2 ms.

What about the “QTc (ECG, Bazett)” value ([3]; 60 min) of the same compound?
Its value is 213.9 ± 7.2 ms.
